Here are results for one substance from paper PMC7579925, “Complementary NAD^+ replacement strategies fail to functionally protect dystrophin-deficient muscle” (Skeletal Muscle, 2020).

The target in this test is T1, CD38 (Mus musculus, UniProt P56528).
T1 construct: recombinant soluble (extracellular) domain, expressed in and purified from Pichia pastoris
T1 sequence (P56528 45-304 limits assumed): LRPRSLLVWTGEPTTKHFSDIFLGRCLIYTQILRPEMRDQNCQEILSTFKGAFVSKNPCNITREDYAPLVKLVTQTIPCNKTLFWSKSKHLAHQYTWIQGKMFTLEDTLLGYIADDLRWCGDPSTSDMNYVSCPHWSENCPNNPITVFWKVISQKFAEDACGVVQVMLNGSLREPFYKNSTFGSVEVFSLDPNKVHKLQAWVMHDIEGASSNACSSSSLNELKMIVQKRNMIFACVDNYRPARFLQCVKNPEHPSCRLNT
Kind of test: colorimetric base-exchange (transglycosidation) assay, dose-response. In kind it is biochemical.

Take GSK978A: the IC50 is recorded as ~ 12 ng/mL.
